Test results taken from patent publication US20170029839A1, “METHOD FOR IMPROVING CROP PRODUCTIVITY” (priority 2013, published 2017).

What was measured:
[1] = system: enzyme encoded by SDG8i (SL-UGT); assay: UGT enzyme assay (coupled pyruvate kinase/lactate dehydrogenase, NADH absorbance at 340 nm) with N. benthamiana leaf protein extract expressing SDG8i; type: biochemical, Sporobolus stapfianus
Method: UGT was produced in N. benthamiana leaf tissue by transient transfection using a viral-based MagnICON vector system (Icon Genetics GmbH, Halle/Salle, Germany).
Briefly, the UGT coding sequence was amplified from the SDG8i cDNA (Le et al., 2007) and ligated into the MagnICON plasmid. The plasmid was then cultured in Escherichia coli DH5α (ATCC Catalog No 53868) and electroporated into Agrobacterium tumefaciens LBA4404). Subsequently, Nicotiana benthamiana leaves were covered in aluminium foil for 3 days before being co-infiltrated with the plasmid and the apoplast-targeting and intergrase modules of the MagnICON system (Marillonnet et al. 2005). Leaves were then harvested 5 days after the co-infiltration and homogenised in ice-cold protein extraction buffer. Following removal of the insoluble material by centrifugation at 13,000 rpm at 4° C. for 5 minutes, protein assays were carried out with Bio-Rad Protein Assay Dye (Bio-Rad Laboratories Inc, Hercules, Calif., United States of America) using bovine serum albumin (BSA) as reference. Protein extracts were analysed by SDS-PAGE using the standard methods described by Sambrook et al. (1989).
UGT activity was measured using a coupled assay with pyruvate kinase and lactate dehydrogenase with the reaction rate monitored by the change in NADH absorbance at 340 nm (Jackson et al. 2001). Activity in millikatals kg^−1 was calculated using the extinction coefficient […] for NADH. The background activity of the extracts, monitored by the measurement of the rate without substrate addition, was subtracted from the reaction rate.
To investigate the catalytic function of the enzyme encoded by the SDG8i cDNA, the glucosyltransferase activity of N. benthamiana leaf protein extracts infiltrated with a CaMV 35S promoter driven SDG8i construct was tested against a number of substrates and compared with activity in extracts infiltrated with a vector-only control. The assay utilised a linked enzymic reaction as described in the Materials and Methods. […]

[2] = system: Orobanche seeds; assay: Orobanche germination assay; type: in vivo; conditions: 0.6 ml aqueous solution 0.0001 mg/1, 7 days at 18-20° C. in the dark; seeds with emerged radicle; water control 11%
Method: Orobanche seeds were surface sterilised with 2% sodium hypochlorite containing 0.02% (v/v) of polysorbate 20 surfactant (Tween 20™; Sigma-Aldrich Co LLC, St Louis, Mo., United States of America) for 5 min then rinsed (5×) with sterile ddH2O and dried for 30 min in a laminar air flow cabinet. Subsequently, between 50 and 100 seeds were spread on a sterile […] glass fibre disk and placed in petri dishes (9 cm diameter) lined with filter paper wetted with 3 mL of ddH2O. 1 ml of gibberellic acid (GA3) (30 mg/L) was applied to the seeds and the petri dishes then sealed with parafilm and incubated at 18-20° C. in the dark for preconditioning. After 7 days, surface-sterilised seeds of Arabidopsis W/T, SDG8i transgenics, sorghum and & stapfianus were placed on 5 cm glass microfiber disks and incubated on ¼ MS media with 0.5% sugar and 0.8% agar. For controls, 0.6 ml aqueous solution of synthetic strigolactone analog GR24 (Chiralix B.V., Toernooiveld 1006525 EC Nijmegen, The Netherlands) (0.0001 mg/1) or sterile water was applied to petri dishes with preconditioned Orobanche seeds. The plates were then resealed with parafilm and wrapped with foil and incubated at 18-20° C. for 7 days for germination. Orobanche seed germination was determined under a stereoscopic microscope by counting the number of seeds having an emerged radicle.

[3] = system: SDG8i promoter-driven GUS reporter (prSDG8i-GUS); assay: Activation of GUS expression driven by prSDG8i in onion epidermal peels; type: cell-based; conditions: onion peels containing prSDG8i-GUS construct by itself, MJ added to suspension
Source text: The promoter sequence (1660 nt) of SDG8i was placed upstream of the GUS reporter gene in a construct designated prSDG8i-GUS. This construct was transiently co-transformed into onion epidermal peels along with the pMDC32:7y or pMDC32:10y constructs which contained either SDG10y or SDG7y under the transcriptional regulation of the CaMV 35S promoter which is constitutively active in onion cells. The formation of a blue precipitate indicates activation of the SDG8i promoter-driven GUS reporter gene by the SDG10y or SDG7y transcription factor constructs.
Agrobacterium-mediated transient transformation was achieved by immersing onion peels in the Agrobacterium suspensions containing these constructs in 10 mM MES buffer (pH 5.5) and 200 μM acetosyringone at 28° C. in the dark for 2/3 days. A 35S:GUS control construct was included in these experiments and the hormone methyl jasmonate (MJ) was also added to some suspensions. After 2 days, the onion peels were soaked in a GUS staining solution and left at 28° C. in the dark. The onion peels were examined every 2 hours to monitor the formation of blue precipitate.

SMILES: CC1=CC(O/C=C2/C(=O)OC3c4ccccc4CC23)OC1=O (centres unmarked) [GR24]
- Km ([1]; GR24 as substrate of SDG8i extract, FIG. 1B): 349 µM
- Vmax ([1]; GR24 as substrate of SDG8i extract, FIG. 1B, method: activity calculated in millikatals kg^-1): 5.67
- glycosylation activity ([1]; SDG8i extract versus vector-only control, background endogenous NADH oxidase subtracted, FIG. 1A): substantial glycosylation activity
- Orobanche seed germination [2]: 95%

SMILES: CC/C=C\CC1C(=O)CCC1CC(=O)OC (centres unmarked) [MJ, methyl jasmonate]
- GUS activity [3]: elevated
